Results from patent US6417211B1, “Isothiazolone concentrates” (Rohm and Haas Company, priority 1999, dated 2002).
Marks after values point to notes of the source that are not given here.

Columns and labels:
[1] = Physical stability of MI solutions on storage (homogeneity, clarity, crystallization, precipitation, phase separation); assay type: physicochemical
Protocol: By “physically stable” we mean that the compositions are homogeneous and fluid at temperatures of 20 to 25° C. for at least 24 hours. Preferably the compositions are physically stable at 20° C. and below for at least 3 days, more preferably for at least 2 weeks, and most preferably for at least 4 weeks. In addition, it is desirable that the compositions retain their physical stability for similar time periods at temperatures of 15° C. and below, and preferably at 5° C. and below.
Samples of technical grade 2-methyl-3-isothiazolone (MI) were used to prepare solutions of the NHITA in various solvents at different concentrations. […] Solutions were prepared by adding a weighed amount of molten MI (melted at about 55° C.) to a weighed amount of deionized water (or a solvent or a solvent-water mixture) in a 20-milliliter (ml) vial; the mixture was swirled and allowed to cool to room temperature. The prepared samples were allowed to stand at room temperature (20-25° C.) for 24 hours and then subjected to storage at cooler temperatures (5° C. and −17° C.) for at least 72 hours; observations were made at each condition to determine physical stability (homogeneity, clarity, crystallization, precipitation, phase separation). The samples were considered physically stable if no crystallization, phase separation or precipitation occurred; concentrations (or concentration ranges) at which the compositions were unstable are indicated by ** superscript, otherwise concentrations (ranges) listed were stable; results are summarized in Table I (concentrations are weight % MI).

[2] = Chemical stability of MI solutions on storage (HPLC, % active ingredient remaining); assay type: physicochemical; conditions: ± 1-2%
[3] = solvent DEC (diethyl carbonate), 20-25° C., 24 hours
[4] = solvent DME (1,2-dimethoxyethane), 20-25° C., 24 hours
[5] = solvent DMSO, 20-25° C., 24 hours
[6] = solvent IPA (isopropanol), 5° C., at least 72 hours
[7] = solvent MeOH, 5° C., at least 72 hours
[8] = solvent PC (propylene carbonate), 20-25° C., 24 hours
[9] = solvent PG (propylene glycol), 5° C., at least 72 hours
[10] = solvent Water, 5° C., at least 72 hours
[11] = solvent Water, 20-25° C., 24 hours
[12] = solvent Water, −17° C., at least 72 hours

## Cn1sccc1=O [MI, 2-Methyl-3-isothiazolone]
[1]; 80% MI solution in water, 5° C.
  time solution remained stable: at least 4 months
[1]; 90% MI solution in water, 5° C.
  time solution remained stable: at least 4 months
[1]; solvent 50/50 MeOH/Water, 5° C., at least 72 hours
  MI concentration physically stable: 88 weight %
[1]; solvent 50/50 MeOH/Water, 20-25° C., 24 hours
  MI concentration physically stable: 88 weight %
[1]; solvent 50/50 MeOH/Water, −17° C., at least 72 hours
  MI concentration physically unstable (crystal formation or insoluble): 88** weight %
[1]; solvent BEE (2-(2-butoxyethoxyl)ethanol), 5° C., at least 72 hours
  MI concentration physically unstable (crystal formation or insoluble): 68-88** weight %
[1]; solvent BEE (2-(2-butoxyethoxyl)ethanol), 20-25° C., 24 hours
  MI concentration physically stable: 68-88 weight %
[1]; solvent DEC (diethyl carbonate), 5° C., at least 72 hours
  MI concentration physically unstable (crystal formation or insoluble): 70** weight %
[1]; [3]
  MI concentration physically stable: 70 weight %
  MI concentration physically unstable (crystal formation or insoluble): 80-90 weight %
[1]; solvent DME (1,2-dimethoxyethane), 5° C., at least 72 hours
  MI concentration physically unstable (crystal formation or insoluble): 70-80** weight %
[1]; [4]
  MI concentration physically stable: 70-80 weight %
  MI concentration physically unstable (crystal formation or insoluble): 90 weight %
[1]; solvent DMSO, 5° C., at least 72 hours
  MI concentration physically unstable (crystal formation or insoluble): 70-80** weight %
[1]; [5]
  MI concentration physically stable: 70-80 weight %
  MI concentration physically unstable (crystal formation or insoluble): 90 weight %
[1]; solvent DPG (dipropylene glycol), 5° C., at least 72 hours
  MI concentration physically unstable (crystal formation or insoluble): 75-90** weight %
[1]; solvent DPG (dipropylene glycol), 20-25° C., 24 hours
  MI concentration physically stable: 75-90 weight %
[1]; [6]
  MI concentration physically stable: 78 weight %
  MI concentration physically unstable (crystal formation or insoluble): 88 weight %
[1]; solvent IPA (isopropanol), 20-25° C., 24 hours
  MI concentration physically stable: 78-88 weight %
[1]; solvent IPA (isopropanol), −17° C., at least 72 hours
  MI concentration physically unstable (crystal formation or insoluble): 78** weight %
[1]; [7]
  MI concentration physically stable: 78 weight %
  MI concentration physically unstable (crystal formation or insoluble): 88 weight %
[1]; solvent MeOH, 20-25° C., 24 hours
  MI concentration physically stable: 78-88 weight %
[1]; solvent MeOH, −17° C., at least 72 hours
  MI concentration physically stable: 78 weight %
[1]; solvent PC (propylene carbonate), 5° C., at least 72 hours
  MI concentration physically unstable (crystal formation or insoluble): 69** weight %
[1]; [8]
  MI concentration physically stable: 69 weight %
  MI concentration physically unstable (crystal formation or insoluble): 80-90 weight %
[1]; [9]
  MI concentration physically stable: 68 weight %
  MI concentration physically unstable (crystal formation or insoluble): 78-88 weight %
[1]; solvent PG (propylene glycol), 20-25° C., 24 hours
  MI concentration physically stable: 68-88 weight %
[1]; solvent PG (propylene glycol), −17° C., at least 72 hours
  MI concentration physically stable: 68 weight %
[1]; [10]
  MI concentration physically stable: 60-89.5 weight %
  MI concentration physically unstable (crystal formation or insoluble): 90.5 weight %
[1]; [11]
  MI concentration physically stable: 60-94.4 weight %
  MI concentration physically unstable (crystal formation or insoluble): 95.4 weight %
[1]; [12]
  MI concentration physically stable: 70-77 weight %
  MI concentration physically unstable (crystal formation or insoluble): 88 weight %
[1]; solvent φCH2OH (benzyl alcohol), 5° C., at least 72 hours
  MI concentration physically stable: 60 weight %
[1]; solvent φCH2OH (benzyl alcohol), 20-25° C., 24 hours
  MI concentration physically stable: 60 weight %
[1]; solvent φCH2OH (benzyl alcohol), −17° C., at least 72 hours
  MI concentration physically unstable (crystal formation or insoluble): 60** weight %
[1]; solvent φOCH2CH2OH (phenoxyethanol), 5° C., at least 72 hours
  MI concentration physically stable: 60 weight %
[1]; solvent φOCH2CH2OH (phenoxyethanol), 20-25° C., 24 hours
  MI concentration physically stable: 60 weight %
[1]; solvent φOCH2CH2OH (phenoxyethanol), −17° C., at least 72 hours
  MI concentration physically unstable (crystal formation or insoluble): 60** weight %
[2]; initial MI concentration 68, PG, 40° C./11 days
  % Active Ingredient (MI) Remaining: 100%
[2]; initial MI concentration 78, MeOH, 40° C./11 days
  % Active Ingredient (MI) Remaining: 104%
[2]; initial MI concentration 85.8, Water, 55° C./4 weeks
  % Active Ingredient (MI) Remaining: 97.1%
[2]; initial MI concentration 88, 50/50 MeOH/Water, 40° C./11 days
  % Active Ingredient (MI) Remaining: 101%
